Measured values from PubChem BioAssay AID1963986 (Molecular Pharmacology Branch, DTP, NCI, 2024).
One block for each molecule: values may come before it.

Test system: 171881-019-R-J1-PDC tumor spheroid viability
Assay: Anticancer human tumor 171881-019-R-J1-PDC patient-derived invasive breast carcinoma cell line growth inhibition [PI3K]
Details: spheroids with HUVEC and MSC; for IC50: curve of first compound; for viability, T/C: stronger effect = lower value
Source text: Combinatorial screen of targeted agents with the PI3K inhibitors inavolisib, alpelisib, duvelisib, and copanlisib in multi-cell type tumor spheroids
A high-throughput screen of multi-cell type tumor spheroids was designed to identify active combinations of targeted small molecules and PI3K pathway inhibitors. Complex spheroids include a stromal component modeled by human endothelial cells (HUVEC) and fibroblasts modeled by human mesenchymal stem cells (MSCs). The concentration ranges selected for each drug and investigational agent were based upon clinically achievable concentrations if the clinical Cmax of the agent was known.
Compounds. The drugs and investigational agents: inavolisib (NSC800729), alpelisib (NSC765974), duvelisib (NSC772469), copanlisib (NSC816437), ipatasertib (NSC767898), afuresertib (NSC778305), talazoparib (NSC767125), sapanisertib (NSC764658), selumetinib (NSC741078), tovorafenib (DAY101, NSC766906), vemurafenib (NSC761431), ravoxertinib (NSC781343), sotorasib (NSC818433), MRTX1133 (NSC 836407), abemaciclib (NSC 768073), palbociclib (NSC758247), venetoclax (NSC 766270), SY5609 (NSC837396), enzalutamide (NSC755605), and darolutamide (NSC825331), were obtained from the National Cancer Institute (NCI) Developmental Therapeutics Program Chemical Repository. The FDA-approved anticancer drug set is available from the NCI Developmental Therapeutics Program. […] The stock solutions were prepared in dimethyl sulfoxide (DMSO, Sigma-Aldrich, St. Louis, MO, cat. D2650) at 800-fold the tested concentration and stored at -70 degrees C prior to their use. All drugs and investigational agents were tested over a range starting from a high concentration at or near the clinical Cmax and decreasing in half-log increments. If the clinical Cmax for an agent had not been determined, the highest concentration tested was 10 microM.
Cell Culture. All cells were maintained in an incubator at 37 degrees C and 5% CO2 with 95% humidity. The PDC lines were cultured according to standard operating procedures established by the NCI PDMR (https://pdmr.cancer.gov/sops/default.htm). All PDCs were thawed and cultured in Matrigel-coated flasks prepared with a working solution of 1X Ham's F-12 nutrient mix, without supplementation (Invitrogen, Waltham, MA, cat. 11765054), 100 U/mL penicillin-streptomycin (Invitrogen, cat. 15140122), and 2.5% Matrigel (Corning Inc., Corning, NY, cat. 354248) for the first three passages. The 354836-022-R-J1-PDC, 475296-252-R-J1-PDC, and 997726-040-R-J2-PDC lines were cultured in 6A media, which includes advanced DMEM/F-12 (Thermo Fisher Scientific, cat. 12634028), 10 mM HEPES (Thermo Fisher Scientific, cat. 15630080), 1X GlutaMAX supplement (Thermo Fisher Scientific, cat. 35050061), 0.1 mg/mL primocin (InvivoGen, San Diego, CA, cat. ant-pm-2), 10% defined fetal bovine serum, heat inactivated (HyClone Laboratories Inc., Logan, UT, cat. SH30070.03HI), 50% L-WRN conditioned media (ATCC, cat. CRL-3276), 1.25 mM N-Acetyl-L-cysteine (Sigma-Aldrich, cat. A9165), 10 mM nicotinamide (Sigma-Aldrich, cat. N0636), 1X B-27 supplement (Thermo Fisher Scientific, cat. 17504044), 1X N-2 supplement (Thermo Fisher Scientific, cat. 17502048), and 10 microM Y-27632 dihydrochloride (Tocris Bioscience, Bristol, United Kingdom, cat. 1254). The 624824-186-R-J2-PDC line was cultured in 6C/Colon 1B media, which includes all 6A media components plus 50 ng/mL human EGF recombinant protein (Thermo Fisher Scientific, cat. PHG0311). […]

[1] = second compound 0.0316 µM, first compound 0.0316 µM
[2] = second compound 0.0316 µM, first compound 0.1 µM
[3] = second compound 0.0316 µM, first compound 0.316 µM
[4] = second compound 0.0316 µM, first compound 1 µM
[5] = second compound 0.0316 µM, first compound 3.16 µM
[6] = second compound 0.0316 µM, first compound 10 µM
[7] = second compound 0.1 µM, first compound 0.0316 µM
[8] = second compound 0.1 µM, first compound 0.1 µM
[9] = second compound 0.1 µM, first compound 0.316 µM
[10] = second compound 0.1 µM, first compound 1 µM
[11] = second compound 0.1 µM, first compound 3.16 µM
[12] = second compound 0.1 µM, first compound 10 µM
[13] = second compound 0.316 µM, first compound 0.0316 µM
[14] = second compound 0.316 µM, first compound 0.1 µM
[15] = second compound 0.316 µM, first compound 0.316 µM
[16] = second compound 0.316 µM, first compound 1 µM
[17] = second compound 0.316 µM, first compound 3.16 µM
[18] = second compound 0.316 µM, first compound 10 µM
[19] = second compound 1 µM, first compound 0.0316 µM
[20] = second compound 1 µM, first compound 0.1 µM
[21] = second compound 1 µM, first compound 0.316 µM
[22] = second compound 1 µM, first compound 1 µM
[23] = second compound 1 µM, first compound 3.16 µM
[24] = second compound 1 µM, first compound 10 µM
[25] = second compound 3.16 µM, first compound 0.0316 µM
[26] = second compound 3.16 µM, first compound 0.1 µM
[27] = second compound 3.16 µM, first compound 0.316 µM
[28] = second compound 3.16 µM, first compound 1 µM
[29] = second compound 3.16 µM, first compound 3.16 µM
[30] = second compound 3.16 µM, first compound 10 µM
[31] = second compound 10 µM, first compound 0.0316 µM
[32] = second compound 10 µM, first compound 0.1 µM
[33] = second compound 10 µM, first compound 0.316 µM
[34] = second compound 10 µM, first compound 1 µM
[35] = second compound 10 µM, first compound 3.16 µM
[36] = second compound 10 µM, first compound 10 µM
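Further: spheroids exposed to compound for 7 days before viability read.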
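Wherever viability, T/C is given: 100% = DMSO vehicle-treated spheroids.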

IC50 (second compound 0.0316 µM): 276 nM
IC50 (second compound 0.1 µM): 262 nM
IC50 (second compound 0.316 µM): 72.8 nM
IC50 (second compound 1 µM): < 31.6 nM
IC50 (second compound 3.16 µM): < 31.6 nM
IC50 (second compound 10 µM): < 31.6 nM
SMILES: CC(C)NCC(C(=O)N1CCN(c2ncnc3c2C(C)CC3O)CC1)c1ccc(Cl)cc1 (stereo unspecified) + Cc1nc(NC(=O)N2CCCC2C(N)=O)sc1-c1ccnc(C(C)(C)C(F)(F)F)c1
viability, T/C [1]: 97.9%
viability, T/C [2]: 68.3%
viability, T/C [3]: 50.1%
viability, T/C [4]: 28.4%
viability, T/C [5]: 16.7%
viability, T/C [6]: 9.99%
viability, T/C [7]: 81.6%
viability, T/C [8]: 64.3%
viability, T/C [9]: 49.5%
viability, T/C [10]: 25.9%
viability, T/C [11]: 13.6%
viability, T/C [12]: 8.89%
viability, T/C [13]: 55.5%
viability, T/C [14]: 46.7%
viability, T/C [15]: 38%
viability, T/C [16]: 23.2%
viability, T/C [17]: 12.6%
viability, T/C [18]: 8.17%
viability, T/C [19]: 32%
viability, T/C [20]: 31%
viability, T/C [21]: 28.6%
viability, T/C [22]: 16.1%
viability, T/C [23]: 8.99%
viability, T/C [24]: 7.16%
viability, T/C [25]: 14.6%
viability, T/C [26]: 14.8%
viability, T/C [27]: 12.4%
viability, T/C [28]: 8.95%
viability, T/C [29]: 6.94%
viability, T/C [30]: 4.98%
viability, T/C [31]: 3.06%
viability, T/C [32]: 3.52%
viability, T/C [33]: 3.3%
viability, T/C [34]: 3.85%
viability, T/C [35]: 2.77%
viability, T/C [36]: 1.56%

IC50 (second compound 0.0316 µM): > 10000 nM
IC50 (second compound 0.1 µM): > 10000 nM
IC50 (second compound 0.316 µM): > 10000 nM
IC50 (second compound 1 µM): > 10000 nM
IC50 (second compound 3.16 µM): 9100 nM
IC50 (second compound 10 µM): 5290 nM
SMILES: C=CC(=O)N1CCN(c2nc(=O)n(-c3c(C)ccnc3C(C)C)c3nc(-c4c(O)cccc4F)c(F)cc23)C(C)C1 (stereo unspecified) + CC(Nc1ncnc2nc[nH]c12)c1cc2cccc(Cl)c2c(=O)n1-c1ccccc1
viability, T/C [1]: 95.3%
viability, T/C [2]: 94.3%
viability, T/C [3]: 94.6%
viability, T/C [4]: 94.3%
viability, T/C [5]: 106%
viability, T/C [6]: 58.9%
viability, T/C [7]: 104%
viability, T/C [8]: 88.7%
viability, T/C [9]: 87.2%
viability, T/C [10]: 84.1%
viability, T/C [11]: 108%
viability, T/C [12]: 57.6%
viability, T/C [13]: 108%
viability, T/C [14]: 103%
viability, T/C [15]: 98.9%
viability, T/C [16]: 112%
viability, T/C [17]: 105%
viability, T/C [18]: 61%
viability, T/C [19]: 101%
viability, T/C [20]: 105%
viability, T/C [21]: 106%
viability, T/C [22]: 112%
viability, T/C [23]: 99.4%
viability, T/C [24]: 53.4%
viability, T/C [25]: 96.3%
viability, T/C [26]: 88.3%
viability, T/C [27]: 90.6%
viability, T/C [28]: 93.1%
viability, T/C [29]: 88.2%
viability, T/C [30]: 46.6%
viability, T/C [31]: 63.9%
viability, T/C [32]: 60.9%
viability, T/C [33]: 65.6%
viability, T/C [34]: 68.6%
viability, T/C [35]: 64.5%
viability, T/C [36]: 32%

IC50 (second compound 0.0316 µM): 9730 nM
IC50 (second compound 0.1 µM): 9440 nM
IC50 (second compound 0.316 µM): 2350 nM
IC50 (second compound 1 µM): < 31.6 nM
IC50 (second compound 3.16 µM): < 31.6 nM
IC50 (second compound 10 µM): < 31.6 nM
SMILES: C=CC(=O)N1CCN(c2nc(=O)n(-c3c(C)ccnc3C(C)C)c3nc(-c4c(O)cccc4F)c(F)cc23)C(C)C1 (stereo unspecified) + Cc1nc(NC(=O)N2CCCC2C(N)=O)sc1-c1ccnc(C(C)(C)C(F)(F)F)c1
viability, T/C [1]: 92.6%
viability, T/C [2]: 83.4%
viability, T/C [3]: 98.4%
viability, T/C [4]: 92%
viability, T/C [5]: 79.6%
viability, T/C [6]: 48.8%
viability, T/C [7]: 84.1%
viability, T/C [8]: 73.2%
viability, T/C [9]: 86.3%
viability, T/C [10]: 87.4%
viability, T/C [11]: 86.9%
viability, T/C [12]: 48.2%
viability, T/C [13]: 55%
viability, T/C [14]: 50.9%
viability, T/C [15]: 56.8%
viability, T/C [16]: 60.4%
viability, T/C [17]: 57.9%
viability, T/C [18]: 34.7%
viability, T/C [19]: 29.8%
viability, T/C [20]: 32.3%
viability, T/C [21]: 32.1%
viability, T/C [22]: 32.4%
viability, T/C [23]: 33%
viability, T/C [24]: 19.4%
viability, T/C [25]: 14.7%
viability, T/C [26]: 15.2%
viability, T/C [27]: 14.5%
viability, T/C [28]: 15.2%
viability, T/C [29]: 16.8%
viability, T/C [30]: 8.95%
viability, T/C [31]: 3.67%
viability, T/C [32]: 3.63%
viability, T/C [33]: 4.33%
viability, T/C [34]: 4.28%
viability, T/C [35]: 4.51%
viability, T/C [36]: 2.34%
